Like-named read-outs stand apart in the source and are kept apart here.
What was measured:
[1] = test system: patients with advanced pancreatic cancer; format: in vivo, human
[2] = Plasma pharmacokinetics; format: in vivo, human; conditions: for Tmax: median; for effect of co‐administration on exposure: dinaciclib with MK‐2206
[3] = cited from earlier work
[4] = test system: pSer473 Akt; conditions: lowest dose level tested (60 mg once weekly); cited from earlier work
[5] = A: Dinaciclib/combination N = 11

Q: Which results are given for `NC1(c2ccc(-c3nc4ccn5c(=O)[nH]nc5c4cc3-c3ccccc3)cc2)CCC1` [MK‐2206]?
A: Dose reduction MK‐2206 [1, 5]: 0 (0%) n (%); Dose reduction MK‐2206 ([1]; B: MK‐2206/combination N = 7): 1 (14%) n (%); Dose reduction MK‐2206 ([1]; Dose escalation N = 21): 1 (5%) n (%); maximum tolerated dose ([1]; MK‐2206 p.o. weekly in combination with dinaciclib): 135 mg; C ss,min ([2]; MK‐2206 alone, Expansion, arm B, MK‐2206 135 mg, dinaciclib 9 mg/m^2, mean ± SD): 48.0 ± 22.7 (7); Tmax ([2]; MK‐2206 alone, Expansion, arm B, MK‐2206 135 mg, dinaciclib 9 mg/m^2): 4 (2.17–25.17; 7) hour; T 1/2 ([2]; MK‐2206 in combination, Expansion, arm B, dose reduced, MK‐2206 90 mg, dinaciclib 9 mg/m^2, n = 1): 64.5 (1) h; effect of co‐administration on exposure [2]: did not alter; half-life ([2]; human, plasma, oral, 90 mg, T 1/2, MK‐2206 alone, Escalation, level 3, MK‐2206 90 mg, dinaciclib 12 mg/m^2, mean ± SD): 68.3 ± 16.6 h; Tmax ([2]; human, plasma, oral, 90 mg, Tmax, MK‐2206 alone, Escalation, level 3, MK‐2206 90 mg, dinaciclib 12 mg/m^2): 5.97 h; half-life ([2]; human, plasma, oral, 135 mg, T 1/2, MK‐2206 alone, Escalation, level 2.5, MK‐2206 135 mg, dinaciclib 9 mg/m^2, mean ± SD): 56.9 ± 9.7 h; Tmax ([2]; human, plasma, oral, 135 mg, Tmax, MK‐2206 alone, Escalation, level 2.5, MK‐2206 135 mg, dinaciclib 9 mg/m^2): 4.5 h; half-life ([2]; human, plasma, oral, T 1/2, MK‐2206 in combination, Expansion, arm A, MK‐2206 135 mg, dinaciclib 9 mg/m^2, mean ± SD): 69.7 ± 23.1 h; Tmax ([2]; human, plasma, oral, Tmax, MK‐2206 in combination, Expansion, arm A, MK‐2206 135 mg, dinaciclib 9 mg/m^2): 10.2 h; Tmax ([2]; human, plasma, oral, Tmax, MK‐2206 in combination, Expansion, arm B, MK‐2206 135 mg, dinaciclib 9 mg/m^2): 5.13 h; recommended phase II dose ([3]; once weekly): 200 mg; pSer473 Akt expression in tumor biopsies [4]: significant reduction

Q: What does the source list for `CCc1cnn2c(NCc3ccc[n+]([O-])c3)cc(N3CCCC[C@H]3CCO)nc12` [dinaciclib]?
A: Dose reduction Dinaciclib [1, 5]: 2 (18%) n (%); Dose reduction Dinaciclib ([1]; B: MK‐2206/combination N = 7): 0 (0%) n (%); Dose reduction Dinaciclib ([1]; Dose escalation N = 21): 3 (14%) n (%); maximum tolerated dose ([1]; dinaciclib i.v. weekly in combination with MK‐2206): 9 mg/m^2; association between exposure (Cmax) and race ([2]; African Americans and Asians vs white patients, P = 0.04): lower exposure; effect of co‐administration on exposure [2]: did not alter; recommended phase II dose ([3]; single agent): 12 mg/m^2

Reference: article PMC7719383 (Clinical and Translational Science, 2020)
